Assay results: patent US8357694B2, “Substituted 5,6-dihydro-6-phenylbenzo[F]isoquinolin-2-amine compounds” (ArQule, Inc., priority 2008, dated 2013)
Where a name gives a salt, the structure may show the parent alone.

Experiments:
RT4 = assay: MTS cell kill assay, RT4; type: cell-based; conditions: Homo sapiens, RT-4, RT4
Procedure: (§1) Cells were maintained at 37° C., 5% CO2 in DMEM media supplemented with 1% fetal bovine serum, penicillin/streptomycin and fungizone (Invitrogen). Cells were seeded into 96-well tissue culture plates at 3000 per well and cultured at 37° C. for 18 hours. Test compounds were dissolved and diluted to 300× in DMSO then diluted 1:40 in DMEM.

AN3-CA = assay: MTS cell kill assay, AN3-CA; type: cell-based; conditions: Homo sapiens
Procedure: as §1

FGFR2 kinase = molecular target: T1, FGFR2 kinase (Homo sapiens, UniProt P21802, N549H); assay: fluorescent ELISA FGFR2 kinase assay (biochemical); conditions: FGFR2 (N549H); read-out: Biochemical data (IC50-μM) FGFR2 (N549H)
T1 construct: purchased Millipore 14-742
T1 sequence (P21802 456-770 N549H limits assumed): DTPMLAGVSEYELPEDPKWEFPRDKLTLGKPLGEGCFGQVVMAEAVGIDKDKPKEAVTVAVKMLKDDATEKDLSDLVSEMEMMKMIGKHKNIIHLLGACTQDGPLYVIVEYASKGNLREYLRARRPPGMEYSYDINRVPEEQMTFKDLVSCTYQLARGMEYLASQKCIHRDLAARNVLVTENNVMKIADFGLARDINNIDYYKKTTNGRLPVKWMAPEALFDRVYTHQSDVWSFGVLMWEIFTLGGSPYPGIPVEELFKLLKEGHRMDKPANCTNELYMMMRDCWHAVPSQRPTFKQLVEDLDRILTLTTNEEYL
Procedure: The enzymatic assays described herein are conducted according to the following procedures from commercially available reagents. In one, non limiting, example, a fluorescent ELISA assay is used to identify and characterize inhibitors of FGFR2 kinase as described herein. This heterogeneous assay utilizes a biotinylated peptide with a tyrosine motif as a substrate and an anti-phospho-tyrosine antibody to measure phosphorylation of the substrate. […] The reaction is incubated for 60 minutes. As the reaction proceeds, FGFR2 phosphorylates tyrosines in the peptide. […] Peptides are captured for 30 minutes at room temperature, the phosphorylation of peptides continues during this phase. The reaction is stopped by washing the streptavidin-coated plate 6 times with TBST. […] Unbound anti-phospho-tyrosine antibody is removed by washing the streptavidin-coated plate 6 times with TBST. […] Unbound secondary antibody is removed by washing the streptavidin-coated plate 6 times with TBST.

SNU-16 [1] = assay: MTS assay, SNU-16; type: cell-based; conditions: Homo sapiens
Procedure: as §1

RT112 = assay: MTS cell kill assay, RT112; type: cell-based; conditions: Homo sapiens, RT-112, RT112
Procedure: as §1

PACA-2 = assay: MTS cell kill, PACA-2; type: cell-based
Procedure: as §1

NCI-H1299 = assay: MTS cell kill, NCI-H1299; type: cell-based
Procedure: as §1

PC-3 = assay: MTS cell kill, PC-3; type: cell-based
Procedure: as §1

MDA-MB-231 = assay: MTS cell kill, MDA-MB-231; type: cell-based
Procedure: as §1

KATO III [2] = assay: MTS assay, KATO III; type: cell-based
Procedure: as §1

DLD-1 = assay: MTS cell kill, DLD-1; type: cell-based
Procedure: as §1

SNU-16 [3] = assay: in vitro PD assay, SNU-16; type: cell-based; conditions: Homo sapiens
KATO III [4] = assay: in vitro PD assay, KATO III; type: cell-based; conditions: Homo sapiens
[5] = SNU-16, SNU-16, read-out: MTS cell kill data (IC50-μM) SNU-16

Row | IC50 (FGFR2 kinase) [µM] | SMILES | IC50 (RT4) [µM] | IC50 (AN3-CA) [µM] | IC50 (SNU-16 [1]; [5]) [µM] | IC50 (RT112) [µM] | MTS cell kill data (% inhibition) PACA-2 (PACA-2) | MTS cell kill data (% inhibition) NCI-H1299 (NCI-H1299) | MTS cell kill data (% inhibition) PC-3 (PC-3) | MTS cell kill data (% inhibition) MDA-MB-231 (MDA-MB-231) | MTS cell kill data (% inhibition) KATO III (KATO III [2]) | MTS cell kill data (% inhibition) DLD-1 (DLD-1) | also measured
1 | 0.014 | COCCN1CCN(CCc2ccc(Nc3ncc4c(n3)-c3ccccc3[C@H](c3ccccc3F)C4)cc2)CC1 [Example 66, (R)-6-(2-fluorophenyl)-N-(4-(2-(4-(2-methoxyethyl)piperazin-1-yl)ethyl)phenyl)-5,6-dihydrobenzo[h]quinazolin-2-amine hydrochloride] | 1.55 | 0.361 | 1.28 |  |  |  |  |  |  |  | 
2 | 0.0174 | CN1CCN(CCc2cccc(Nc3ncc4c(n3)-c3ccccc3[C@H](c3ccccc3F)C4)c2)CC1 [Example 161, (R)-6-(2-fluorophenyl)-N-(3-(2-(4-methylpiperazin-1-yl)ethyl)phenyl)-5,6-dihydrobenzo[h]quinazolin-2-amine hydrochloride] | 1.47 | 0.738 | 0.397 | 0.627 |  |  |  |  |  |  | 
3 | 0.0511 | Fc1ccccc1[C@@H]1Cc2cnc(Nc3cccc(CCN4CCNCC4)c3)nc2-c2ccccc21 [Example 163, (R)-6-(2-fluorophenyl)-N-(3-(2-(piperazin-1-yl)ethyl)phenyl)-5,6-dihydrobenzo[h]quinazolin-2-amine] | 1.38 | 1.39 | 0.894 | 1.19 |  |  |  |  |  |  | melting point: 165 to 167 °C
4 | 0.047 | COCCN1CCN(CCc2cccc(Nc3ncc4c(n3)-c3ccccc3[C@@H](c3ccccc3F)C4)c2)CC1 [Example 164, (S)-6-(2-fluorophenyl)-N-(3-(2-(4-(2-methoxyethyl)piperazin-1-yl)ethyl)phenyl)-5,6-dihydrobenzo[h]quinazolin-2-amine] | 2.97 | 1.38 | 1.34 | 1.51 |  |  |  |  |  |  | 
5 | 0.0433 | CN1CCN(CCc2cc(Nc3ncc4c(n3)-c3ccccc3[C@H](c3ccccc3F)C4)ccc2F)CC1 [Example 174, (R)-N-(4-fluoro-3-(2-(4-methylpiperazin-1-yl)ethyl)phenyl)-6-(2-fluorophenyl)-5,6-dihydrobenzo[h]quinazolin-2-amine hydrochloride salt] | 3.54 | 2 | 1.16 | 1.52 |  |  |  |  |  |  | 
6 | 0.0443 | COCCN1CCN(CCc2cc(Nc3ncc4c(n3)-c3ccccc3[C@H](c3ccccc3F)C4)ccc2F)CC1 [Example 175, (R)-N-(4-fluoro-3-(2-(4-(2-methoxyethyl)piperazin-1-yl)ethyl)phenyl)-6-(2-fluorophenyl)-5,6-dihydrobenzo[h]quinazolin-2-amine hydrochloride salt] | 2.97 | 2.39 | 1.04 | 1.54 |  |  |  |  |  |  | 
7 | 0.0255 | COCCNCc1cccc(Nc2ncc3c(n2)-c2ccccc2[C@H](c2ccccc2F)C3)c1 [Example 178, (R)-6-(2-fluorophenyl)-N-(3-((2-methoxyethylamino)methyl)phenyl)-5,6-dihydrobenzo[h]quinazolin-2-amine hydrochloride] | 4.28 | 1.77 | 0.711 | 2.68 |  |  |  |  |  |  | 
8 |  | CN(C)CCCCNc1ncc2c(n1)-c1ccccc1C(c1ccc(NS(=O)(=O)c3ccc(C(C)(C)C)cc3)cc1)C2 (stereo not drawn) [Example 435, 4-tert-butyl-N-[4-(2-{[4-(dimethylamino)butyl]amino}-5,6-dihydrobenzo[h]quinazolin-6-yl)phenyl]benzenesulfonamide] |  |  |  |  | A (A = 80-100% inhibition) | A (A = 80-100% inhibition) | A (A = 80-100% inhibition) | A (A = 80-100% inhibition) | A (A = 80-100% inhibition) | A (A = 80-100% inhibition) | 
9 |  | CN(C)CCCCNc1ncc2c(n1)-c1ccccc1C(c1ccc(NC(=O)c3ccccc3Br)cc1)C2 (stereo not drawn) [Example 466, 2-bromo-N-[4-(2-{[4-(dimethylamino)butyl]amino}-5,6-dihydrobenzo[h]quinazolin-6-yl)phenyl]benzamide] |  |  |  |  | A (A = 80-100% inhibition) | A (A = 80-100% inhibition) | B (B = 50-79% inhibition) | B (B = 50-79% inhibition) | A (A = 80-100% inhibition) | A (A = 80-100% inhibition) | 
10 |  | Cc1cccc(C(=O)Nc2ccc(C3Cc4cnc(NCCCCN(C)C)nc4-c4ccccc43)cc2)c1 (stereo not drawn) [Example 469, N-[4-(2-{[4-(dimethylamino)butyl]amino}-5,6-dihydrobenzo[h]quinazolin-6-yl)phenyl]-3-methylbenzamide] |  |  |  |  | A (A = 80-100% inhibition) | A (A = 80-100% inhibition) | A (A = 80-100% inhibition) | A (A = 80-100% inhibition) | A (A = 80-100% inhibition) | A (A = 80-100% inhibition) | 
11 |  | CCCc1ccc(C(=O)Nc2ccc(C3Cc4cnc(NCCCCN(C)C)nc4-c4ccccc43)cc2)cc1 (stereo not drawn) [Example 470, N-[4-(2-{[4-(dimethylamino)butyl]amino}-5,6-dihydrobenzo[h]quinazolin-6-yl)phenyl]-4-propylbenzamide] |  |  |  |  | A (A = 80-100% inhibition) | A (A = 80-100% inhibition) | A (A = 80-100% inhibition) | A (A = 80-100% inhibition) | A (A = 80-100% inhibition) | A (A = 80-100% inhibition) | 
12 |  | COCC(=O)Nc1ccc(C2Cc3cnc(NCCCCN(C)C)nc3-c3ccccc32)cc1 (stereo not drawn) [Example 471, N-[4-(2-{[4-(dimethylamino)butyl]amino}-5,6-dihydrobenzo[h]quinazolin-6-yl)phenyl]-2-methoxyacetamide] |  |  |  |  | A (A = 80-100% inhibition) | A (A = 80-100% inhibition) | C (C = <50% inhibition) | A (A = 80-100% inhibition) | A (A = 80-100% inhibition) | A (A = 80-100% inhibition) | 
13 |  | COc1ccc(OC)c(CC(=O)Nc2ccc(C3Cc4cnc(NCCCCN(C)C)nc4-c4ccccc43)cc2)c1 (stereo not drawn) [Example 473] |  |  |  |  | A (A = 80-100% inhibition) | A (A = 80-100% inhibition) | A (A = 80-100% inhibition) | A (A = 80-100% inhibition) | A (A = 80-100% inhibition) | A (A = 80-100% inhibition) | 
14 |  | COc1ccc(C(=O)Nc2ccc(C3Cc4cnc(NCCCCN(C)C)nc4-c4ccccc43)cc2)cc1F (stereo not drawn) [Example 474, N-[4-(2-{[4-(dimethylamino)butyl]amino}-5,6-dihydrobenzo[h]quinazolin-6-yl)phenyl]-3-fluoro-4-methoxybenzamide] |  |  |  |  | A (A = 80-100% inhibition) | A (A = 80-100% inhibition) | A (A = 80-100% inhibition) | B (B = 50-79% inhibition) | A (A = 80-100% inhibition) | A (A = 80-100% inhibition) | 
15 |  | CCN(CC)CCNC(=O)c1c(C)[nH]c(/C=C2\C(=O)Nc3ccc(F)cc32)c1C [Sunitinib, reference compound] |  |  |  |  |  |  |  |  |  |  | IC50 (SNU-16 [3]): 4300 nM; IC50 (KATO III [4]): 1600 nM; IC50 (KATO III [2]; Homo sapiens, read-out: MTS IC50): 300 nM; IC50 (SNU-16 [1]; SNU-16, read-out: MTS IC50): 1.1 µM
